Results published in patent US20250101025A1, “NOVEL PLK1 DEGRADATION INDUCING COMPOUND” (UPPTHERA, INC., priority 2021, published 2025).
Where two headings read alike, the source gives them in different places.

Legend:
Format in all cases: cell-based
H526 cell line = experiment: Cell viability assay for NCI-H526 cell line (EZ-Cytox); details: Homo sapiens, NCI-H526, 120 h; H526 cells, 3-fold dilutions 3000 nM to 0.46 nM, 5 days
Method: (1) Culture of NCI-H526 Cell Line
(2) Treatment of Compounds of the Present Invention and Method of Cell Viability Assay
After treating the compound to each well to make the total volume of 200 μL, it was cultured in a CO2 incubator (Thermo Fisher Science, Cat. No. 4111) for 5 days.
The absorbance of the completely cultured sample was measured by setting the wavelength of a plate reader (BMG Labtech, CLARIOstar Plus) to […], and was measured after shaking for 3 minutes in a plate reader before measurement.
In Table 3, Activity represents IC50 value of each Exemplary Compound treatment group to H526 cell line (A: <30 nM, B: <50 nM, C: <100 nM, D: <200 nM, E: <400 nM).

MRC-5 cell line = experiment: Cell viability assay for MRC-5 cell line (EZ-Cytox cytotoxicity experiment); details: Homo sapiens, MRC5, 120 h, MRC-5 normal cell line, 5 days
Method: 4. Cell Viability Assay for MRC-5 Cell Line
(1) Culture of MRC-5 Cell Line
Passage of cultured cells was maintained within P15.
(2) Treatment of Compounds of the Present Invention
Then, it was cultured in 37° C.
(3) Cytotoxicity Experiment
CO2 incubator for 4 hours.

PLK1 = biological target: T1, PLK1 (Homo sapiens, UniProt P53350); experiment: Luciferase assay for PLK1 in HeLa LgBit (Plk1-HiBit KI) cell line; details: compound 300 nM, luminescence after 9 hours
T1 construct: endogenous in cells; host or cells: HeLa LgBit (Plk1-HiBit KI): HeLa stably expressing LgBit, with HiBit knocked in at the endogenous Plk1 locus by CRISPR/Cas9
T1 sequence (P53350 whole entry): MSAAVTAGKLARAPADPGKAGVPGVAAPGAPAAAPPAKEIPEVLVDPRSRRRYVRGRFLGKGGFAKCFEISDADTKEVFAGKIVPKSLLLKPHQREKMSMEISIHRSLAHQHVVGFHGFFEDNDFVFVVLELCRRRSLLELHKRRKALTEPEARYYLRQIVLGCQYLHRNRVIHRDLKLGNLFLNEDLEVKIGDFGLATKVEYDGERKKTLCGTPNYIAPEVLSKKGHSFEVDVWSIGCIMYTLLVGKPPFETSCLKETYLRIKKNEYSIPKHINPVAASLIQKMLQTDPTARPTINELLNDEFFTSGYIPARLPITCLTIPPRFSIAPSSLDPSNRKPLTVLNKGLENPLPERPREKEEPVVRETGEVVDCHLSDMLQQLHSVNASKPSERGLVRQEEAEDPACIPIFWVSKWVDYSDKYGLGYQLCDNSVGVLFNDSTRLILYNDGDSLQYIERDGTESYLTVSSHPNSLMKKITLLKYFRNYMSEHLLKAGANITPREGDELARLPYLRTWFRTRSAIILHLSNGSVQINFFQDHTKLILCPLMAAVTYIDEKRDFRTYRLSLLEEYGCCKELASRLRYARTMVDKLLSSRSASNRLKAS
Method: 2. Luciferase Assay for PLK1
(1) Preparation and Culture of HeLa LgBit (Plk1-HiBit KI) Cell Line
A HeLa cell line in which the LgBit vector was transfected and expressed stably was prepared. Then, after constructing gRNA and donor to express the HiBit amino acid sequence behind the C-terminal of the Plk1 gene, which was inherent in the cell, it was inserted into the cell together with a vector capable of expressing CRISPR/Cas9. Only the cells in which the insertion was completed and knock-in had progressed were selected, sub-cultured and used.
(2) Treatment of Compounds of the Present Invention and Method of Luciferase Assay
In the case of HeLa LgBit (Plk1-HiBit KI), the compounds were treated after being released after thymidine block, and the process was as follows. Thymidine (Sigma-Aldrich Cat. No. T9250-5G) was completely dissolved in DW and used in the experiment. For thymidine block, the products were treated with 2 mM of thymidine and then incubated for 24 hours. For release and chemical treatment, the medium was suctioned and washed with 1×PBS. TrypLE™ was added and incubated in 37° C. CO2 incubator for 5 min. Cells neutralized by adding complete media were counted through a counter. For each well of a 96-well culture plate (SPL), 3.3×10^4 cells and a total medium volume of 150 μL were seeded and incubated in a CO2 incubator.
Each cell line was incubated in a CO2 incubator for 18 hours, and Endurazine was added to each well to make up 4% of the total volume. After adding the compound of the present invention in a 96-well white plate (SPL) to a concentration of 300 nM, the wavelength of the plate reader (BMG Labtech, CLARIOstar Plus) was set to […], and then the luminescence was tracked in real time.
In Table 2, Activity represents the ratio of the luminescence value of each Exemplary Compound treatment group to DMSO treatment group (+++: <0.3, ++<0.6, +<0.7).

[1] = highest concentration 10000 nM, N.D. = no cytotoxicity until 10 μM, read-out: Activity: IC50 value to MRC-5 cell line, N.D. cells

Activity: ratio of the luminescence value of each Exemplary Compound treatment group to DMSO treatment group (PLK1) | Structure (SMILES) | IC50 (H526 cell line) [nM] | IC50 (MRC-5 cell line; 3-fold dilutions 10000 nM to 1.52 nM, Exemplary Compounds, numeric values, read-out: Activity: IC50 value (nM) to MRC-5 cell line) [nM] | IC50 (MRC-5 cell line; [1]) [nM]
+++ (+++: <0.3) | COc1cc(C(=O)NC2CC3(CCN(CC4CCN(c5c(F)cc(NC6CCC(=O)NC6=O)cc5F)CC4)CC3)C2)ccc1Nc1ncc2c(n1)N(C(C)C)CC(F)(F)C(=O)N2C (centres unmarked) [Compound 25, 4-((7,7-difluoro-9-isopropyl-5-methyl-6-oxo-6,7,8,9-tetrahydro-5H-pyrimido[4,5-b][1,4]diazepin-2-yl)amino)-N-(7-((1-(4-((2,6-dioxopiperidin-3-yl)amino)-2,6-difluorophenyl)piperidin-4-yl)methyl)-7-azaspiro[3.5]nonan-2-yl)-3-methoxybenz amide] | < 30 | 9240 | –
– | COc1cc(C(=O)NC2CC3(CCN(CC4CCN(c5ccc6c(N7CCC(=O)NC7=O)nn(C)c6c5)CC4)CC3)C2)ccc1Nc1ncc2c(n1)N(C1CCCC1)CC(F)(F)C(=O)N2C [Compound 40, 4-((9-cyclopentyl-7,7-difluoro-5-methyl-6-oxo-6,7,8,9-tetrahydro-5H-pyrimido[4,5-b][1,4]diazepin-2-yl)amino)-N-(7-((1-(3-(2,4-dioxotetrahydropyrimidin-1 (2H)-yl)-1-methyl-1H-indazol-6-yl)piperidin-4-yl)methyl)-7-azaspiro[3.5]nonan-2-yl)-3-methoxybenzamide] | < 30 | – | –
++ (++<0.6) | COc1cc(C(=O)NC2CCN(CC3CN(c4ccc(NC5CCC(=O)NC5=O)cc4F)C3)CC2)ccc1Nc1ncc2c(n1)N(C(C)C)CC(F)(F)C(=O)N2C (centres unmarked) [Compound 20, 4-((7,7-difluoro-9-isopropyl-5-methyl-6-oxo-6,7,8,9-tetrahydro-5H-pyrimido[4,5-b][1,4]diazepin-2-yl)amino)-N-(1-((1-(4-((2,6-dioxopiperidin-3-yl)amino)-2-fluorophenyl)azetidin-3-yl)methyl)piperidin-4-yl)-3-methoxybenzamide] | < 50 | – | > 10000
+++ (+++: <0.3) | COc1cc(C(=O)NN2CCC(CCN3CCN(c4ccc(NC5CCC(=O)NC5=O)cc4F)CC3)CC2)ccc1Nc1ncc2c(n1)N(C1CCCC1)CC(F)(F)C(=O)N2C (centres unmarked) [Compound 22, 4-((9-cyclopentyl-7,7-difluoro-5-methyl-6-oxo-6,7,8,9-tetrahydro-5H-pyrimido[4,5-b][1,4]diazepin-2-yl)amino)-N-(4-(2-(4-(4-((2,6-dioxopiperidin-3-yl)amino)-2-fluorophenyl)piperazin-1-yl)ethyl)piperidin-1-yl)-3-methoxybenzamide] | < 30 | – | > 10000
+++ (+++: <0.3) | COc1cc(C(=O)NC2CCN(C(=O)CCN3CCN(c4ccc(NC5CCC(=O)NC5=O)cc4)CC3)CC2)ccc1Nc1ncc2c(n1)N(C1CCCC1)CC(F)(F)C(=O)N2C (centres unmarked) [Compound 13, 4-((9-cyclopentyl-7,7-difluoro-5-methyl-6-oxo-6,7,8,9-tetrahydro-5H-pyrimido[4,5-b][1,4]diazepin-2-yl)amino)-N-(1-(3-(4-(4-((2,6-dioxopiperidin-3-yl)amino)phenyl)piperazin-1-yl)propanoyl)piperidin-4-yl)-3-methoxybenzamide] | < 30 | – | > 10000
++ (++<0.6) | COc1cc(C(=O)NN2CCC(CN3CCN(c4ccc(NC5CCC(=O)NC5=O)cc4F)CC3)CC2)ccc1Nc1ncc2c(n1)N(C(C)C)CC(F)(F)C(=O)N2C (centres unmarked) [Compound 17, 4-((7,7-difluoro-9-isopropyl-5-methyl-6-oxo-6,7,8,9-tetrahydro-5H-pyrimido[4,5-b][1,4]diazepin-2-yl)amino)-N-(4-((4-(4-((2,6-dioxopiperidin-3-yl)amino)-2-fluorophenyl)piperazin-1-yl)methyl)piperidin-1-yl)-3-methoxybenzamide] | < 50 | – | > 10000
+ (+<0.7) | COc1cc(C(=O)NC2CCN(C(=O)CCN3CCN(c4ccc(C(=O)NC5CCC(=O)NC5=O)nc4)CC3)CC2)ccc1Nc1ncc2c(n1)N(C1CCCC1)CC(F)(F)C(=O)N2C (centres unmarked) [Compound 7, 5-(4-(3-(4-(4-((9-cyclopentyl-7,7-difluoro-5-methyl-6-oxo-6,7,8,9-tetrahydro-5H-pyrimido[4,5-b][1,4]diazepin-2-yl)amino)-3-methoxybenzamido)piperidin-1-yl)-3-oxopropyl)piperazin-1-yl)-N-(2,6-dioxopiperidin-3-yl)picolinamide] | – | – | –
+ (+<0.7) | COc1cc(C(=O)NN2CCC(N3CC4(CCN(c5cccc6c5n(C)c(=O)n6C5CCC(=O)NC5=O)CC4)C3)CC2)ccc1Nc1ncc2c(n1)N(C(C)C)CC(F)(F)C(=O)N2C (centres unmarked) [Compound 41, 4-((7,7-difluoro-9-isopropyl-5-methyl-6-oxo-6,7,8,9-tetrahydro-5H-pyrimido[4,5-b][1,4]diazepin-2-yl)amino)-N-(4-(7-(1-(2,6-dioxopiperidin-3-yl)-3-methyl-2-oxo-2,3-dihydro-1H-benzo[d]imidazol-4-yl)-2,7-diazaspiro[3.5]nonan-2-yl)piperidin-1-yl)-3-methoxybenzamide] | – | – | –
+ (+<0.7) | COc1cc(C(=O)NC2CCN(C(=O)CCN3CCN(c4ccc(C(=O)NC5CCC(=O)NC5=O)cc4)CC3)CC2)ccc1Nc1ncc2c(n1)N(C1CCCC1)CC(F)(F)C(=O)N2C (centres unmarked) [Compound 4, 4-((9-cyclopentyl-7,7-difluoro-5-methyl-6-oxo-6,7,8,9-tetrahydro-5H-pyrimido[4,5-b][1,4]diazepin-2-yl)amino)-N-(1-(3-(4-(4-((2,6-dioxopiperidin-3-yl)carbamoyl)phenyl)piperazin-1-yl)propanoyl)piperidin-4-yl)-3-methoxybenzamide] | – | – | –
+++ (+++: <0.3) | COc1cc(C(=O)NC2CC3(CCN(CC4CCN(c5ccc(N(C)C6CCC(=O)NC6=O)cc5)CC4)CC3)C2)ccc1Nc1ncc2c(n1)N(C(C)C)CC(F)(F)C(=O)N2C (centres unmarked) [Compound 27, 4-((7,7-difluoro-9-isopropyl-5-methyl-6-oxo-6,7,8,9-tetrahydro-5H-pyrimido[4,5-b][1,4]diazepin-2-yl)amino)-N-(7-((1-(4-((2,6-dioxopiperidin-3-yl)(methyl)amino)phenyl)piperidin-4-yl)methyl)-7-azaspiro[3.5]nonan-2-yl)-3-methoxybenzamide] | < 30 | – | –
++ (++<0.6) | COc1cc(C(=O)NN2CCC(N3CC4(CCN(c5ccc(N(C)C6CCC(=O)NC6=O)cc5)CC4)C3)CC2)ccc1Nc1ncc2c(n1)N(C(C)C)CC(F)(F)C(=O)N2C (centres unmarked) [Compound 31, 4-((7,7-difluoro-9-isopropyl-5-methyl-6-oxo-6,7,8,9-tetrahydro-5H-pyrimido[4,5-b][1,4]diazepin-2-yl)amino)-N-(4-(7-(4-((2,6-dioxopiperidin-3-yl)(methyl)amino)phenyl)-2,7-diazaspiro[3.5]nonan-2-yl)piperidin-1-yl)-3-methoxybenzamide] | < 100 | – | –
